Reference: a melting point compilation (Tetko et al.; mined from patent text by program, amines drawn as free bases though some values may be those of a salt)

Row | Structure (SMILES) | melting point
1 | NC(=O)n1nc(-c2ccccc2)cc1N | 255 °C
2 | Cc1cc(Br)cc(Br)c1NC(=N)Nc1c(C)cc([N+](=O)[O-])cc1Br | 193 to 195 °C
3 | CCC(N=O)C(C)(C)Cl (configuration not stated) | 85 to 86 °C
4 | CCOC(=O)c1cc(Cl)cnc1NC(=O)Cc1ccccc1 | 114 °C
5 | CC(=O)CC1=C(C#N)C(c2cccc(C#N)c2Br)c2c[nH]nc2N1 (configuration not stated) | 230 °C
6 | CS(=O)(=O)c1ccc(C(=O)N2CCNC2=Nc2c(Cl)cccc2Cl)cc1 | 240 to 244 °C
7 | CCCc1cc(OC)ccc1-c1noc2cc(OC)ccc12 | 71 to 72 °C
8 | COC(=O)c1ccc(N)c(S(C)(=O)=O)c1 | 146 °C
9 | Cc1cccc(N2C(=O)C(=CN(C)C)c3ccccc32)c1 | 105 to 108 °C
10 | Cn1c2ccccc2c2c(=O)n([C@@H]3CN4CCC3CC4)ccc21 | 251 to 252 °C
11 | Cc1nnc(NC(C)C)s1 | 145 °C
12 | O=C(O)c1cccc(C(=O)c2ccc(Cl)cc2)c1 | 228 °C
13 | O=C(CSCc1ccccc1)CS(=O)(=O)C(c1ccc(Cl)cc1)c1ccc(Cl)cc1 | 108 to 110 °C
14 | O=C1N(N2CCCCC2)c2ccccc2C1(Cc1ccnc(F)c1)c1ccccc1 (configuration not stated) | 129 to 132 °C
15 | CC(C)C1(C)N=C(c2ccccc2C(=O)O)NC1=S (configuration not stated) | 192 to 198 °C
16 | O=C(O)CCC(=O)NCCCCCC1CCSS1 (configuration not stated) | 74 °C
17 | CC(C)[C@H](COc1ccccc1)Nc1nc(Cl)nc2c1ncn2[C@@H]1O[C@H](CO)[C@@H](O)[C@H]1O | 95 to 100 °C
18 | CCOC(=O)C(C#N)=NOC(=O)OCc1ccccc1 | 101 to 102 °C

Row | Structure (SMILES) | melting point
19 | CC(C)(CONCc1ccccc1Cl)C(=O)O | 78 to 80 °C
20 | O=C(Nc1nc2c(s1)CC(N1CCN(c3ccccn3)CC1)CC2)c1ccccc1 (configuration not stated) | 230 to 232 °C
21 | CC(C)(C)C(=O)O[C@H]1[C@H](N2CCCC2)c2cc(C#N)ccc2OC1(C)C (relative stereo) | 109 to 110 °C
22 | COc1ccccc1N1CCN(CCCCc2c[nH]c3ccccc23)CC1 | 113 to 115 °C
23 | COc1ccc(-c2nc(C(=O)Nc3c(C)cccc3C)c[nH]2)cc1OC1CCCC1 | 118 to 122 °C
24 | CCOC(=O)c1cnc2c(C)cc(-c3ccc(Cl)cc3)cn12 | 147 °C
25 | Clc1ccc2nc(Cl)cn2c1 | 155 to 156 °C
26 | CCOC(=O)C(C#N)=NOC(=O)OCC(C)C | 60 to 62 °C
27 | Cc1ccccc1-n1ccnc1SCCCO | 47 to 48 °C
28 | O=C(NO)[C@H]1CN(S(=O)(=O)c2ccc(-c3ccon3)s2)CCN1S(=O)(=O)c1ccc(-c2ccccc2)s1 | 204 °C
29 | CCCc1nc2ccccc2c(=O)n1Cc1ccc(-c2ccccc2-c2nnn[nH]2)cc1 | 171 to 172 °C
30 | NP(N)(=O)NC(=O)c1ccsc1 | 269 to 278 °C
31 | CCN1CCC(NC(=O)Nc2ccccc2CCc2cc(C(C)(C)C)c(O)c(C(C)(C)C)c2)CC1 | 182 to 184 °C
32 | O=C(OCc1ccccc1)N1CCSC1=S | 72 °C
33 | C=CCN1CCC23c4c5ccc(O)c4OC2C(C)C(=NO)CC3(O)C1C5 (configuration not stated) | 128 to 129 °C
34 | CCc1oc2ccccc2c1C(=O)c1c(Br)cc(Br)c(O)c1Br | 153 to 154 °C
35 | CC(C)(Sc1ccc2c(-c3ccc(Cl)cc3)noc2c1)C(=O)O | 176 to 177 °C

The remaining lines, values ahead:

Row | melting point | Structure (SMILES)
36 | 108 to 110 °C | O=C1CCCc2c1ccn2S(=O)(=O)c1ccccc1
37 | 121 °C | Cc1nc(N(C)c2ccccc2)n2ncc(C(=O)c3ccccc3)c2n1
38 | 244 to 246 °C | O=C(O)c1ccc(Nc2noc(C(F)(F)F)n2)cc1
39 | 146 to 150 °C | Cc1ccc2c(c1)C=Cc1oc(C)nc1C2c1cn(C)c(=O)[nH]c1=S (configuration not stated)
40 | 108 to 110 °C | CCN1CCCOc2cc(Nc3ncc(Cl)c(N[C@@H]4CCCC[C@H]4NS(C)(=O)=O)n3)ccc21
41 | 70 to 73 °C | O=C(c1cccc(F)c1)N1CC2CC2(c2ccc(Cl)cc2)C1 (configuration not stated)
42 | 112 to 114 °C | Cc1cc(NS(=O)(=O)c2ccccc2)cc(C)c1S(=O)(=O)C(Cl)(Cl)[N+](=O)[O-]
43 | 65 °C | CCOC(=O)C(C)(C)Oc1ccc(OCc2ccccc2)cc1C=O
44 | 131 to 132 °C | CC(C)(C)C(=O)c1ccc(C(=O)NC(=O)c2ccc(C(=O)C(C)(C)C)cc2)cc1
45 | 198 to 200 °C | COc1ccc2c(=O)cc(C(=O)N[C@H]3CCN(C(=O)c4cc(C(F)(F)F)cc(C(F)(F)F)c4)[C@H](Cc4ccc(Cl)cc4)C3)oc2c1
46 | 62 to 64 °C | N#CCC#CC1(c2ccc(Cl)cc2)CC1
47 | 225 to 227 °C | CCCP(=O)(CCC)Cc1ccc(NC(=O)/C=C/c2cccc(-c3ccc(C)cc3)c2)cc1
48 | 174 to 176 °C | Nc1nc(NCc2ccccc2)c2ncn(C3C=CC(CO)C3)c2n1 (configuration not stated)
49 | 155 to 156 °C | CCCCC(CC)n1nnc2c(Nc3c(Cl)cc(OC)cc3OC)nc(C)cc21 (configuration not stated)
50 | 202 to 203 °C | O=C(N[C@H](Cc1ccc(C(F)(F)F)cc1)[C@@H](O)c1ccc(F)cc1)c1ccc(CO)c2ccccc12 (racemic)
51 | 206 to 207 °C | Cc1csc(N2CCN(Cc3ccc(C(=O)Nc4ccc(F)cc4)cc3)C2=O)n1
52 | 157 to 158 °C | CCCCCCCCCCCCCCNC1=NS(=O)(=O)c2sc(Cl)cc2N1
53 | 145 to 146 °C | CNC(=O)Cc1cccc(C(=O)c2ccccc2)c1N
54 | 258 to 260 °C | Cc1nc2ccc(F)cc2[nH]c1=O

Row | melting point | Structure (SMILES)
55 | 93 to 95 °C | CC(C)Nc1cccnc1N1CCN(C(=O)c2ccc(C(=O)N[C@H](CO)c3ccccc3)cc2)CC1
56 | 40 to 42 °C | CCOC(=O)CCCOc1ccc2c(c1)C(N(CC)S(C)(=O)=O)CC(C)(C)O2 (configuration not stated)
57 | 160 °C | OC1(c2ccc(Cl)cc2)CCN(CCCn2cnc3ccccc32)CC1
58 | 242 to 243 °C | CCOC(=O)C1=C(c2ccc(-n3c(C)nc4cnccc43)nc2)NC(C)=C(C(=O)Nc2ccccn2)C1c1ccccc1Cl (configuration not stated)
59 | 188 °C | CCOC(=O)NCCN1CCC(n2c(=O)[nH]c3cc(Cl)ccc32)CC1
60 | 132 to 137 °C | CN=C(NC)Nc1nc(CSCCNC2=NS(=O)(=O)N=C2NC)cs1
61 | 166 to 167 °C | COCCNC(=O)c1n[nH]cc1NC(=O)c1ccccn1
62 | 139 to 144 °C | C[C@@H]1S[C@@H](C(=O)Nc2ccc(CC3SC(=O)NC3=O)cc2)Cc2cc3c(cc2C1=O)OCO3 (some centres not stated)
63 | 154 °C | O=C(O)c1ccn2c1CSC2c1cccnc1 (single isomer, unassigned; (+))
64 | 185 °C | CC(Cc1cc(-c2ccccc2)nc2ccccc12)C(=O)O (configuration not stated)
65 | > 250 °C | Nc1cc2c(=O)cc(C(=O)O)[nH]c2ccc1=O
66 | 77 to 77.5 °C | Clc1ccc(-c2cnccn2)cc1
67 | 95 °C | CCCCOc1ccc(C(=O)CCCCC(=O)O)cc1
68 | 130 to 131 °C | COc1ccc(-c2nc(C(=O)NC3CCN(Cc4ccccc4)CC3)sc2-c2ccc(OC)cc2)cc1
69 | 158 to 161 °C | O=[N+]([O-])c1ccccc1CSc1nnnn1-c1ccccc1
70 | 143 °C | O=c1cc(N2CCOCC2)oc2ccccc12
71 | 269 °C | N#Cc1c(N2CCN(C(=O)c3cccs3)CC2)c2cccnc2n(CC(=O)c2ccccc2)c1=O
72 | 111 to 115 °C | O=C(C[C@H](NC(=O)C(F)(F)F)C(=O)O)c1ccc2c(c1)Cc1ccccc1-2
